In BindingDB's records for patent US9278914 (University of Tennessee Research Foundation, 2016):

Target: Cytochrome P450 2C9 (Homo sapiens, UniProt P11712)
Experiment: In Vitro CYP Inhibition Assay
Details: 37 °C

Chain of Cytochrome P450 2C9 (P11712 whole entry): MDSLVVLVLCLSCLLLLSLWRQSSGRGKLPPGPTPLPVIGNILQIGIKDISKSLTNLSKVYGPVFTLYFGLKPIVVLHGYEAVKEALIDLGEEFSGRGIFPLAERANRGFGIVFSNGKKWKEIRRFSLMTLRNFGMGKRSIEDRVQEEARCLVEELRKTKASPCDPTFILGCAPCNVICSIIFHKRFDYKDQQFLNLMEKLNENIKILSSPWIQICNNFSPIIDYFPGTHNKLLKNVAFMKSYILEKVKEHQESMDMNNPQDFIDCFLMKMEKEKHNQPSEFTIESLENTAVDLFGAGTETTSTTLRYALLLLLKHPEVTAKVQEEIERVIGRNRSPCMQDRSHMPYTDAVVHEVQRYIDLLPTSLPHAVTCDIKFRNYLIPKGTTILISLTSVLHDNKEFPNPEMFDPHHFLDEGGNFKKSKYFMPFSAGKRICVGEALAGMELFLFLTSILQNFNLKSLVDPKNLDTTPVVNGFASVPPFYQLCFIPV

C[C@](O)(COc1ccc(Cl)c(F)c1)C(=O)Nc1ccc(C#N)c(C(F)(F)F)c1 [US9278914, S-II]
IC50: > 20 µM
